Laboratory results taken from patent US20020137929A1, “1 - (3-heterocyclylphenyl) isothiourea, -isourea, -guanidine and -amidine herbicidal agents” (Intellectual Property Department, BASF Aktiengesellschaft, priority 1998, published 2002).

How the values were obtained:
[1] = test system: IPOHE (Morningglory, Ivyleaf); assay: Preemergence herbicidal evaluation; format: in vivo, Ipomoea hederacea; settings: rated 4-5 weeks after treatment
Outline: (§1)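 Each species is sown separately in potting soil over roughly an inch of soil before any emergence. The soil surface then receives an aqueous acetone spray delivering about 0.0156 to 0.500 kg/ha of compound. After four to five weeks, injury is scored from 0 to 9 relative to a control.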

ABUTH (Velvetleaf) [2] = assay: Postemergence herbicidal evaluation; format: in vivo, Abutilon theophrasti; settings: postemergence
Outline: (§2)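 Young plants, roughly two weeks from seeding, receive the active ingredient as a sprayed dispersion (acetone/water 50/50, 0.5% TWEEN 20) at 40 psi. Doses span about 0.0156 to 0.500 kg/ha. A visual score from 0 to 9 compares treated with control plants four to five weeks on.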

[3] = test system: CHEAL (Lambsquarters, Common); assay: Preemergence herbicidal evaluation; format: in vivo, Chenopodium album; settings: rated 4-5 weeks after treatment
Outline: as §1

ORYSAT (Rice, Tebonnet) = assay: Postemergence herbicidal evaluation; format: in vivo, Oryza sativa, (L.) Tebonnet; settings: postemergence
Outline: as §2

CYPSE (Flatsedge) = assay: Postemergence weed control under flooded paddy conditions; format: in vivo, Cyperus serotinus; settings: postemergence weeds, rated 3 to 4 weeks after treatment
Outline: (§3)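 Injury ratings (0–9 scale covering stand, vigor, malformation, size, chlorosis and overall appearance versus control) were made three to four weeks after treatment. Test material, about 0.0313 to 0.500 kg/ha a.i. in 50/50 v/v aqueous/acetone, was added to flood water 1.5 to 3 cm deep over 3 to 5 cm weeds and 1.5 to 2.5 leaf rice.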

ECHCG (Barnyardgrass) [4] = assay: Postemergence herbicidal evaluation; format: in vivo, Echinochloa crus-galli; settings: postemergence
Outline: as §2

CYPIR (Rice Flatsedge) = assay: Postemergence weed control under flooded paddy conditions; format: in vivo, Cyperus iria; settings: postemergence weeds, rated 3 to 4 weeks after treatment
Outline: as §3

[5] = test system: TRZAWR (Wheat, Winter, cv Riband); assay: Preemergence herbicidal evaluation; format: in vivo, Triticum aestivum; settings: rated 4-5 weeks after treatment
Outline: as §1

ECHCG (Barnyardgrass) [6] = assay: Preemergence herbicidal evaluation; format: in vivo, Echinochloa crus-galli; settings: rated 4-5 weeks after treatment
Outline: as §1

[7] = test system: CHEAL (Lambsquarters, Common); assay: Postemergence herbicidal evaluation; format: in vivo, Chenopodium album; settings: postemergence
Outline: as §2

ZEAMX (Corn, Field) [8] = assay: Preemergence herbicidal evaluation; format: in vivo, Zea mays; settings: rated 4-5 weeks after treatment
Outline: as §1

[9] = test system: GLXMAW (Soybean, Williams); assay: Preemergence herbicidal evaluation; format: in vivo, Glycine max, (L.) Merr. cv Williams; settings: rated 4-5 weeks after treatment
Outline: as §1

[10] = test system: IPOHE (Morningglory, Ivyleaf); assay: Postemergence herbicidal evaluation; format: in vivo, Ipomoea hederacea; settings: postemergence
Outline: as §2

ZEAMX (Corn, Field) [11] = assay: Postemergence herbicidal evaluation; format: in vivo, Zea mays; settings: postemergence
Outline: as §2

CASOB (Sicklepod) = assay: Preemergence herbicidal evaluation; format: in vivo, Cassia obtusifolia; settings: rated 4-5 weeks after treatment
Outline: as §1

SETVI (Foxtail, Green) = assay: Postemergence herbicidal evaluation; format: in vivo, Setaria viridis; settings: postemergence
Outline: as §2

ABUTH (Velvetleaf) [12] = assay: Preemergence herbicidal evaluation; format: in vivo, Abutilon theophrasti; settings: rated 4-5 weeks after treatment
Outline: as §1

C[C@H](C(=O)O)N1C(=O)CSC1=Nc1cc(-n2c(=O)cc(C(F)(F)F)n(C)c2=O)c(F)cc1Cl [Compound 70, 2-{{2-Chloro-5-[3,6-dihydro-3-methyl-2,6-dioxo-4-(trifluoromethyl)-1(2H)-pyrimidinyl]-4-fluoro-phenyl}imino}-α-methyl-4-oxo-3-thiazolidineacetic acid, D-]
Preemergence herbicidal rating IPOHE ([1]; rate 0.0156 kg/ha): 0.0
Preemergence herbicidal rating IPOHE ([1]; rate 0.0313 kg/ha): 0.0
Preemergence herbicidal rating IPOHE ([1]; rate 0.0625 kg/ha): 0.0
Preemergence herbicidal rating IPOHE ([1]; rate 0.1250 kg/ha): 1.0
Preemergence herbicidal rating IPOHE ([1]; rate 0.2500 kg/ha): 5.0
ABUTH herbicidal rating (ABUTH (Velvetleaf) [2]; rate 0.0158 kg/ha): 1.0
ABUTH herbicidal rating (ABUTH (Velvetleaf) [2]; rate 0.0315 kg/ha): 6.0
ABUTH herbicidal rating (ABUTH (Velvetleaf) [2]; rate 0.0630 kg/ha): 9.0
Preemergence herbicidal rating CHEAL ([3]; rate 0.0156 kg/ha): 2.0
Preemergence herbicidal rating CHEAL ([3]; rate 0.0313 kg/ha): 9.0
Preemergence herbicidal rating CHEAL ([3]; rate 0.0625 kg/ha): 9.0
Preemergence herbicidal rating CHEAL ([3]; rate 0.1250 kg/ha): 9.0
Preemergence herbicidal rating CHEAL ([3]; rate 0.2500 kg/ha): 9.0
ORYSAT herbicidal rating (ORYSAT (Rice, Tebonnet); rate 0.0158 kg/ha): 2.5
ORYSAT herbicidal rating (ORYSAT (Rice, Tebonnet); rate 0.0315 kg/ha): 3.5
ORYSAT herbicidal rating (ORYSAT (Rice, Tebonnet); rate 0.0630 kg/ha): 5.0
Herbicidal rating CYPSE (CYPSE (Flatsedge); Rate 0.0313 kg/ha): 0.0
Herbicidal rating CYPSE (CYPSE (Flatsedge); Rate 0.0625 kg/ha): 0.0
Herbicidal rating CYPSE (CYPSE (Flatsedge); Rate 0.1250 kg/ha): 0.0
Herbicidal rating CYPSE (CYPSE (Flatsedge); Rate 0.2500 kg/ha): 3.0
ECHCG herbicidal rating (ECHCG (Barnyardgrass) [4]; rate 0.0158 kg/ha): 0.0
ECHCG herbicidal rating (ECHCG (Barnyardgrass) [4]; rate 0.0315 kg/ha): 2.0
ECHCG herbicidal rating (ECHCG (Barnyardgrass) [4]; rate 0.0630 kg/ha): 9.0
Herbicidal rating CYPIR (CYPIR (Rice Flatsedge); Rate 0.0313 kg/ha): 0.0
Herbicidal rating CYPIR (CYPIR (Rice Flatsedge); Rate 0.0625 kg/ha): 2.0
Herbicidal rating CYPIR (CYPIR (Rice Flatsedge); Rate 0.1250 kg/ha): 2.0
Herbicidal rating CYPIR (CYPIR (Rice Flatsedge); Rate 0.2500 kg/ha): 2.0
Preemergence herbicidal rating TRZAWR ([5]; rate 0.0156 kg/ha): 0.0
Preemergence herbicidal rating TRZAWR ([5]; rate 0.0313 kg/ha): 0.0
Preemergence herbicidal rating TRZAWR ([5]; rate 0.0625 kg/ha): 0.0
Preemergence herbicidal rating TRZAWR ([5]; rate 0.1250 kg/ha): 1.0
Preemergence herbicidal rating TRZAWR ([5]; rate 0.2500 kg/ha): 5.0
Preemergence herbicidal rating ECHCG (ECHCG (Barnyardgrass) [6]; rate 0.0156 kg/ha): 0.0
Preemergence herbicidal rating ECHCG (ECHCG (Barnyardgrass) [6]; rate 0.0313 kg/ha): 0.0
Preemergence herbicidal rating ECHCG (ECHCG (Barnyardgrass) [6]; rate 0.0625 kg/ha): 0.0
Preemergence herbicidal rating ECHCG (ECHCG (Barnyardgrass) [6]; rate 0.1250 kg/ha): 1.0
Preemergence herbicidal rating ECHCG (ECHCG (Barnyardgrass) [6]; rate 0.2500 kg/ha): 1.0
CHEAL herbicidal rating ([7]; rate 0.0158 kg/ha): 4.0
CHEAL herbicidal rating ([7]; rate 0.0315 kg/ha): 9.0
Preemergence herbicidal rating ZEAMX (ZEAMX (Corn, Field) [8]; rate 0.0156 kg/ha): 0.0
Preemergence herbicidal rating ZEAMX (ZEAMX (Corn, Field) [8]; rate 0.0313 kg/ha): 0.0
Preemergence herbicidal rating ZEAMX (ZEAMX (Corn, Field) [8]; rate 0.0625 kg/ha): 0.0
Preemergence herbicidal rating ZEAMX (ZEAMX (Corn, Field) [8]; rate 0.1250 kg/ha): 1.0
Preemergence herbicidal rating ZEAMX (ZEAMX (Corn, Field) [8]; rate 0.2500 kg/ha): 3.0
Preemergence herbicidal rating GLXMAW ([9]; rate 0.0156 kg/ha): 0.0
Preemergence herbicidal rating GLXMAW ([9]; rate 0.0313 kg/ha): 0.0
Preemergence herbicidal rating GLXMAW ([9]; rate 0.0625 kg/ha): 0.0
Preemergence herbicidal rating GLXMAW ([9]; rate 0.1250 kg/ha): 0.0
Preemergence herbicidal rating GLXMAW ([9]; rate 0.2500 kg/ha): 2.0
IPOHE herbicidal rating ([10]; rate 0.0158 kg/ha): 9.0
IPOHE herbicidal rating ([10]; rate 0.0315 kg/ha): 9.0
IPOHE herbicidal rating ([10]; rate 0.0630 kg/ha): 9.0
ZEAMX herbicidal rating (ZEAMX (Corn, Field) [11]; rate 0.0158 kg/ha): 4.0
ZEAMX herbicidal rating (ZEAMX (Corn, Field) [11]; rate 0.0315 kg/ha): 5.5
ZEAMX herbicidal rating (ZEAMX (Corn, Field) [11]; rate 0.0630 kg/ha): 7.0
Preemergence herbicidal rating CASOB (CASOB (Sicklepod); rate 0.0156 kg/ha): 0.0
Preemergence herbicidal rating CASOB (CASOB (Sicklepod); rate 0.0313 kg/ha): 0.0
Preemergence herbicidal rating CASOB (CASOB (Sicklepod); rate 0.0625 kg/ha): 0.0
Preemergence herbicidal rating CASOB (CASOB (Sicklepod); rate 0.1250 kg/ha): 1.0
Preemergence herbicidal rating CASOB (CASOB (Sicklepod); rate 0.2500 kg/ha): 0.0
SETVI herbicidal rating (SETVI (Foxtail, Green); rate 0.0158 kg/ha): 1.0
SETVI herbicidal rating (SETVI (Foxtail, Green); rate 0.0315 kg/ha): 2.0
SETVI herbicidal rating (SETVI (Foxtail, Green); rate 0.0630 kg/ha): 9.0
Preemergence herbicidal rating ABUTH (ABUTH (Velvetleaf) [12]; rate 0.0156 kg/ha): 0.0
Preemergence herbicidal rating ABUTH (ABUTH (Velvetleaf) [12]; rate 0.0313 kg/ha): 0.0
Preemergence herbicidal rating ABUTH (ABUTH (Velvetleaf) [12]; rate 0.1250 kg/ha): 6.0
Preemergence herbicidal rating ABUTH (ABUTH (Velvetleaf) [12]; rate 0.2500 kg/ha): 9.0
